Reference: US20210346329A1, “TCA CYCLE INTERMEDIATES AND METHODS OF USE THEREOF” (IMBRIA PHARMACEUTICALS, INC., priority 2018, published 2021)
“And” between values parts separate entries of the source, which are not always exact repeats. Equal entries are not always repeated. Where two headings read alike, the source gives them in different places.

Columns and labels:
[1] = for Bioavailability: Oral 50 mg/kg vs IV 10 mg/kg
Method: Blood samples were collected up to 8 hours post-dose, and plasma concentrations of the test articles were determined by LC-MS/MS. Pharmacokinetic parameters were determined using Phoenix WinNonlin (v8.0) software.
Plasma samples were extracted and analyzed using the methods described in the section on Sample Extraction. All data are expressed as ng/mL of the free base. Samples that were below the limit of quantification were not used in the calculation of averages.
Pharmacokinetic parameters were determined with Phoenix WinNonlin (v8.0) software using a non-compartmental model. The maximum plasma concentrations (C0) after IV dosing were estimated by extrapolation of the first two time points back to t=0. The maximum plasma concentration (Cmax) and the time to reach maximum plasma concentration (Tmax) after PO dosing were observed from the data. The area under the time concentration curve (AUC) was calculated using the linear trapezoidal rule with calculation to the last quantifiable data point, and with extrapolation to infinity if applicable. […] Mean residence time, MRT, was calculated by dividing the area under the moment curve (AUMC) by the AUC. Clearance (CL) was calculated from dose/AUC. Steady-state volume of distribution (Vss) was calculated from CL*MRT (mean residence time). Bioavailability was determined by dividing the individual dose-normalized PO AUClast values by the average dose-normalized IV AUClast value. Any samples below the limit of quantitation (1 ng/mL) were treated as zero for pharmacokinetic data analysis.
Standards were prepared in Sprague-Dawley rat plasma containing sodium heparin as the anticoagulant. Working solutions were prepared in 50:50 acetonitrile:water and then added to the rat plasma to make calibration standards to final concentrations of 2000, 1000, 500, 100, 50.0, 10.0, 5.00, 2.50, and 1.00 ng/mL. Standards were treated identically to the study samples.
Plasma samples were manually extracted using acetonitrile in a 96-well plate as outlined in Table 15.

[2] = Percentage recovery of radioactive dose (expired CO2, urine, feces, cage rinse and wipe); details: IV 10 mg/kg, Subject 1006
Method: The plasma-time course, routes and rates of excretion, and tissue distribution of radioactivity following a single oral dose of ^14C-labeled citrate or single oral dose of ^14C-labeled succinate were analyzed in rats.
Formulations were prepared on the day prior to dosing.
CD® rats were obtained from Charles River Laboratories. Animals were 9-11 weeks in age at beginning of study.
Animals given intravenous ^14C-succinate were not kept in a fasting state. ^14C-succinate was administered by tail vein injection.
Following oral dosing, the tube and dose site were wiped with gauze, which was collected for subsequent radioanalysis. Following IV dosing, the needle and dose site were wiped with gauze, which was collected for subsequent radioanalysis. The dose site wipe total radioactivity was subtracted from the total dose administered, to determine dose loss, according to SOP ADME.
Urine and feces were collected at 0-24 hours post-dose and stored on wet ice. Expired CO2 was collected at 0-8 hours and 8-24 hours post-dose by drawing air through traps containing 2 N NaOH according to MPI Research SOP. Samples were stored at ambient temperature and weighed. Aliquots were submitted for radioanalysis.
At 24 hours post-dose, cages were rinsed with a 1% trisodium phosphate (TSP) solution and wiped with gauze pads. The final cage rinse samples and cage wipe samples were collected into separate appropriate containers, and the weight of each cage rinse and cage wipe were recorded.
Samples were analyzed for radioactivity by liquid scintillation counting (LSC) for at least 5 minutes or 100,000 cumulative counts. Samples were analyzed in triplicate.

[3] = IV 10 mg/kg, extrapolated to t = 0, mean
[4] = IV 10 mg/kg, individual Rat 598, 599, 600, 10 mg/kg
[5] = Oral 50 mg/kg, individual Rat 601, 602, 603, 50 mg/kg

## O=[13C](O)[13CH2][13CH2][13C](=O)O [^13C4-succinate]
[1]; IV 10 mg/kg, 0.083 hr, individual Rat 598, 599, 600, 10 mg/kg
  Plasma concentration: 8050 ng/mL and 6880 ng/mL and 8410 ng/mL
[1]; IV 10 mg/kg, 0.083 hr, mean
  Plasma concentration: 7780 ng/mL
[1]; IV 10 mg/kg, 0.50 hr, individual Rat 598, 599, 600, 10 mg/kg
  Plasma concentration: 91.0 ng/mL and 99.8 ng/mL and 144 ng/mL
[1]; IV 10 mg/kg, 0.50 hr, mean
  Plasma concentration: 112 ng/mL
[1]; IV 10 mg/kg, 1.0 hr, individual Rat 598, 599, 600, 10 mg/kg
  Plasma concentration: 27.0 ng/mL and 9.43 ng/mL and 29.5 ng/mL
[1]; IV 10 mg/kg, 1.0 hr, mean
  Plasma concentration: 22.0 ng/mL
[1]; IV 10 mg/kg, 2.0 hr, individual Rat 598, 599, 600, 10 mg/kg
  Plasma concentration: 10.3 ng/mL and 9.06 ng/mL and 19.9 ng/mL
[1]; IV 10 mg/kg, 2.0 hr, mean
  Plasma concentration: 13.1 ng/mL
[1]; IV 10 mg/kg, 4.0 hr, individual Rat 598, 599, 600, 10 mg/kg
  Plasma concentration: 4.79 ng/mL and 6.25 ng/mL and 6.15 ng/mL
[1]; IV 10 mg/kg, 4.0 hr, mean
  Plasma concentration: 5.73 ng/mL
[1]; IV 10 mg/kg, 8.0 hr, individual Rat 598, 599, 600
  Plasma concentration: BLOQ (BLOQ: below the limit of quantitation (1 ng/mL))
[1]; IV 10 mg/kg, extrapolated to t = 0, individual Rat 598, 599, 600
  tmax: 0 min
[1]; IV 10 mg/kg, extrapolated to t = 0, individual Rat 598, 599, 600, 10 mg/kg
  C0: 21947 ng/mL and 21392 ng/mL and 17434 ng/mL
[1]; [3]
  C0: 20257 ng/mL
  tmax: 0 min
[1]; [4]
  AUClast: 2215 ng·h/mL and 1958 ng·h/mL and 2291 ng·h/mL
  AUC∞: 2223 ng·h/mL and 2902 ng·h/mL and 2303 ng·h/mL
  CL: 75 mL/min/kg and 83.3 mL/min/kg and 72.3 mL/min/kg
  Dose-normalized AUClast: 221 kg·ng·h/mL/mg and 196 kg·ng·h/mL/mg and 229 kg·ng·h/mL/mg
  Dose-normalized AUC∞: 222 kg·ng·h/mL/mg and 290 kg·ng·h/mL/mg and 230 kg·ng·h/mL/mg
  MRTlast: 6.12 min and 5.69 min and 8.4 min
  Vss: 0.561 L/kg and 1.65 L/kg and 0.735 L/kg
  t1/2: 75.6 min and 289 min and 78 min
[1]; IV 10 mg/kg, mean
  AUClast: 2155 ng·h/mL
  AUC∞: 2176 ng·h/mL
  CL: 76.8 ± 5.68 mL/min/kg
  Dose-normalized AUC∞: 218 kg·ng·h/mL/mg
  MRTlast: 6.78 min
  Vss: 0.982 ± 0.584 L/kg
  t1/2: 148 ± 122 min
[1]; IV 10 mg/kg, mean, 10 mg/kg
  Dose-normalized AUClast: 215 kg·ng·h/mL/mg
[1]; IV 10 mg/kg, mean, listed as 13C4-Succinate, 10 mg/kg
  Dose-normalized AUClast: ^2Bioavailability determined by dividing the individual oral dose-normalized AUClast values by the average IV dose normalized AUClast value 215 hr*kg*ng/mL/mg from previous study. hr · kg · ng/mL/mg
[1]; individual Rat 601, 602, 603
  Bioavailability: 0.726% and 0.191% and 1.64%
[1]; mean
  Bioavailability: 0.854±0.735%
[1]; Oral 50 mg/kg, 0.50 hr, individual Rat 601, 602, 603, 50 mg/kg
  Plasma concentration: 75.4 ng/mL and 27.8 ng/mL and 186 ng/mL
[1]; Oral 50 mg/kg, 0.50 hr, mean
  Plasma concentration: 96.4 ng/mL
[1]; Oral 50 mg/kg, 1.0 hr, individual Rat 601, 602, 603, 50 mg/kg
  Plasma concentration: 3.78 ng/mL and 3.00 ng/mL and 5.66 ng/mL
[1]; Oral 50 mg/kg, 1.0 hr, mean
  Plasma concentration: 4.15 ng/mL
[1]; Oral 50 mg/kg, 2.0 hr, individual Rat 601, 602, 603, 50 mg/kg
  Plasma concentration: 1.29 ng/mL and BLOQ (BLOQ: below the limit of quantitation (1 ng/mL)) and 2.25 ng/mL
[1]; Oral 50 mg/kg, 2.0 hr, mean
  Plasma concentration: 1.77 ng/mL
[1]; Oral 50 mg/kg, 4.0 hr, individual Rat 601, 602, 603
  Plasma concentration: BLOQ (BLOQ: below the limit of quantitation (1 ng/mL))
[1]; Oral 50 mg/kg, 8.0 hr, individual Rat 601, 602, 603
  Plasma concentration: BLOQ (BLOQ: below the limit of quantitation (1 ng/mL))
[1]; Oral 50 mg/kg, individual Rat 601, 602, 603
  tmax: 15 min
[1]; [5]
  AUClast: 78.3 ng·h/mL and 20.6 ng·h/mL and 177 ng·h/mL
  Cmax: 186 ng/mL and 37.5 ng/mL and 408 ng/mL
  Dose-normalized AUClast: 1.57 kg·ng·h/mL/mg and 0.411 kg·ng·h/mL/mg and 3.54 kg·ng·h/mL/mg
  MRTlast: 22.9 min and 24.2 min and 22.7 min
[1]; Oral 50 mg/kg, mean
  AUClast: 92.0 ng·h/mL
  Cmax: 211 ± 186 ng/mL
  MRTlast: 23.3 min
  tmax: 15 min
[1]; Oral 50 mg/kg, mean, 50 mg/kg
  Dose-normalized AUClast: 1.84 ± 1.58 kg·ng·h/mL/mg and 1.84 kg·ng·h/mL/mg
[1]; PO 50 mg/kg
  Time post dosing at which maximum plasma concentrations were observed: 15 min
[1]; intravenous (10 mg/kg) and oral (50 mg/kg) dosing
  Adverse reactions: No adverse reactions were observed

## O=C(O)CCC(=O)O [^14C-succinate]
[2]; Cage rinse, 0-24 hr
  Percentage recovery of radioactive dose: 0.1 % recovery
[2]; Cage wipe, 24 hr
  Percentage recovery of radioactive dose: 0.0 % recovery
[2]; Expired trap 1, 0-8 hr (line r8)
  Percentage recovery of radioactive dose: 54.8 % recovery
[2]; Expired trap 1, 0-8 hr (line r9)
  Percentage recovery of radioactive dose: 4.6 % recovery
[2]; Expired trap 1, 0-8 hr (line r10)
  Percentage recovery of radioactive dose: 0.4 % recovery
[2]; Expired trap 1, 0-8 hr (line r12)
  Percentage recovery of radioactive dose: 1.3 % recovery
[2]; Expired trap 1, 0-8 hr (line r13)
  Percentage recovery of radioactive dose: 0.7 % recovery
[2]; Expired trap 1, 0-8 hr (line r14)
  Percentage recovery of radioactive dose: 0.3 % recovery
[2]; Feces, 0-24 hr
  Percentage recovery of radioactive dose: 0.2 % recovery
[2]; Subtotal of expired traps (line r11)
  Percentage recovery of radioactive dose: 59.8 % recovery
[2]; Subtotal of expired traps (line r15)
  Percentage recovery of radioactive dose: 2.3 % recovery
[2]; Total
  Percentage recovery of radioactive dose: 65.265 % recovery
[2]; Urine, 0-24 hr
  Percentage recovery of radioactive dose: 2.9 % recovery
